Like-named read-outs stand apart in the source and are kept apart here.
Legend:
[1] = test system: Musca domestics; test: Test Example 4: filter paper with sucrose bait, female housefly imagoes; format: in vivo, Musca domestica; conditions: 0.7 ml on filter paper with 30 mg sucrose, ten female imagoes, after 24 hours, read-out: rate of dead pests
Description: The formulation obtained according to Formulation Example 5 using the present invention compounds (1), (7), (13)-(17), (20), (28), (32), (36), (37), (39), (44)-(46), (53), (55), (57)-(62), (64)-(70) and (71) respectively, was diluted with water so that the active ingredient concentration came to 500 ppm to prepare a pesticidal solution for test.
(§1) On the bottom of a polyethylene cup having a diameter of 5.5 cm, a filter paper having the same diameter was laid, and 0.7 ml of the above pesticidal solution for test was added dropwise on the filter paper, followed by putting 30 mg of sucrose on it uniformly as a bait. Ten female Musca domestics imagoes were set free in the polyethylene cup and covered it with a lid. After 24 hours, the number of surviving Musca domestics was examined and the rate of dead pests was calculated.

[2] = test system: Culex pipiens pallens; test: Test Example 6: last-instar mosquito larvae in treated water; format: in vivo; conditions: 24 h, read-out: rate of dead pests
Description: The formulation obtained according to Formulation Example 5 using the present invention compounds (7), (8)-(11), (14)-(16), (20), (21), (24)-(26), (28), (29), (31), (37)-(39), (44)-(47), (51), (53), (55), (57), (58), (60)-(67), (69), (70) and (71) respectively, was diluted with water so that the active ingredient concentration came to 500 ppm to prepare a pesticidal solution for test.
0.7 ml of above pesticidal solution for test was added to 100 ml of ion exchanged water (active ingredient concentration: 3.5 ppm). Twenty last-instar larvae of Culex pipiens pallens were set free in the solution. After one day, the number of surviving Culex pipiens pallens was examined and the rate of dead pests was calculated.

[3] = test system: Aphis gossypii; test: Test Example 3: spray on cucumber plant, Aphis gossypii; format: in vivo; conditions: 500 ppm, sprayed 20 ml/cup on cucumber plant with about twenty Aphis gossypii; sixth day after the treatment
Description: The formulation obtained according to Formulation Example 5 using the present invention compounds (23) was diluted with water so that the active ingredient concentration came to 500 ppm to prepare a pesticidal solution for test.
At the same time, molding Aisai 1 (available from KATAOKA TIKKARIN Co., Ltd.) was put into a 90 ml polyethylene cup, and seeded with cucumber. The plant was grown until the first true leaf was developed, on which about twenty Aphis gossypii were allowed to be parasitic. On the next day, the above pesticidal solution for test was sprayed at a ratio of 20 ml/cup on the cucumber plant. On the sixth day after the application, the number of Aphis gossypii was examined.

[4] = test system: Blattella germanica; test: Test Example 5: filter paper with sucrose bait, male German cockroach imagoes; format: in vivo; conditions: 144 h, 0.7 ml on filter paper with 30 mg sucrose, two male imagoes, after 6 days, read-out: rate of dead pests
Description: The formulation obtained according to Formulation Example 5 using the present invention compounds (1), (25), (28), (36), (39), (40), (44)-(46), (47), (57), (58), (64), (65) and (67) respectively, was diluted with water so that the active ingredient concentration came to 500 ppm to prepare a pesticidal solution for test.
as §1, with “Two male Blattalla germanica” for “Ten female Musca domestics”, “6 days,” for “24 hours,”, “Blattella germanica” for “Musca domestics”

[5] = test system: Nilaparvata lugens; test: Test Example 1: spray on rice plants, Nilaparvata lugens larvae, 2000 ppm; format: in vivo; conditions: sprayed 20 ml/cup on rice plants, thirty first-instar larvae released, sixth day after release, 25° C.
Description: The formulation obtained according to Formulation Example 5 using the present invention compound (74) and the reference compound (1) respectively, was diluted with water so that the active ingredient concentration came to 2000 ppm to prepare a pesticidal solution for test. At the same time, 50 grams of molding Bonsoru 2 (available from Sumitomo Chemical Co., Ltd.) was put into a polyethylene cup, and 10 to 15 seeds of rice were planted in the polyethylene cup. The rice plants were grown until the second foliage leaves developed and then cut into the same height of 5 cm. The pesticidal solution for test prepared above was sprayed at the rate of 20 ml/cup to these rice plants. After the pesticidal solution sprayed onto the rice plants were dried, they were put into a plastic cup for escape prevention of test pests, and thirty first-instar larvae of Nilaparvata lugens were set free on the rice plants, followed by covering the plastic cup with a lid. Then the plastic cup was left in a greenhouse (25° C.). On the sixth day after the release of larvae of Nilaparvata lugens, the number of parasitic Nilaparvata lugens on the rice plants was examined.

[6] = 0.7 ml of 500 ppm solution in 100 ml water (active ingredient concentration: 3.5 ppm), twenty last-instar larvae, after one day

| SMILES | pest or weed control at 500 ppm [1] [%] | pest or weed control at 3.5 µg/mL [2, 6] [%] | pest or weed control at 500 ppm [4] [%] | also measured |
| --- | --- | --- | --- | --- |
| CCOC(=O)C(C)C(C#N)(C#N)CCC(F)(F)F (centres unmarked) [present invention compound (7), 2-[1-(ethoxycarbonyl)ethyl]-2-(3,3,3-trifluoropropyl)malononitrile] | ≥ 90 | 100 | – | – |
| N#CC(C#N)(CCC(F)(F)F)CC(=O)OC1CCCCC1 [present invention compound (20), 2-(cyclohexyloxycarbonylmethyl)-2-(3,3,3-trifluoropropyl)malononitrile] | ≥ 90 | 100 | – | – |
| CC(C)(C)OC(=O)CC(C#N)(C#N)CCC#N [present invention compound (21), 2-(tert-butoxycarbonylmethyl)-2-(2-cyanoethyl)malononitrile] | – | – | – | pest or weed control at 3.5 µg/mL [2]: 100% |
| CC(C)(C)OC(=O)CC(C#N)(C#N)CCF [present invention compound (23), 2-(tert-butoxycarbonylmethyl)-2-(2-fluoroethyl)malononitrile] | – | – | – | number of parasitic Aphis gossypii [3]: ≤ 3 |
| CC(CCl)CC(C#N)(C#N)CC(=O)OC(C)(C)C (centres unmarked) [present invention compound (25), 2-(tert-butoxycarbonylmethyl)-2-(3-chloro-2-methylpropyl)malononitrile] | – | – | 100 | – |
| CCCCC(C#N)(C#N)CC(=O)OC(C)(C)C [present invention compound (28), 2-(tert-butoxycarbonylmethyl)-2-butylmalononitrile] | ≥ 90 | 100 | 100 | – |
| CCCCCC(C#N)(C#N)CC(=O)OC(C)(C)C [present invention compound (29), 2-(tert-butoxycarbonylmethyl)-2-pentylmalononitrile] | – | 100 | – | – |
| CC(C)CCC(C#N)(C#N)CC(=O)OC(C)(C)C [present invention compound (31), 2-(tert-butoxycarbonylmethyl)-2-(3-methylbutyl)malononitrile] | – | 100 | – | – |
| CCC(C)C(C#N)(C#N)CC(=O)OC(C)(C)C (centres unmarked) [present invention compound (32), 2-(tert-butoxycarbonylmethyl)-2-(1-methylpropyl)malononitrile] | ≥ 90 | – | – | – |
| CC=CCC(C#N)(C#N)CC(=O)OC(C)(C)C [present invention compound (36), 2-(tert-butoxycarbonylmethyl)-2-(2-butenyl)malononitrile] | ≥ 90 | – | 100 | – |
| CCCC(C#N)(C#N)CC(=O)OC(C)(C)C [present invention compound (37), 2-(tert-butoxycarbonylmethyl)-2-propylmalononitrile] | ≥ 90 | – | – | – |
| CCCCC(C#N)(C#N)C(C)C(=O)OC(C)(C)C (centres unmarked) [present invention compound (39), 2-[1-(tert-butoxycarbonyl)ethyl]-2-butylmalononitrile] | ≥ 90 | – | 100 | – |
| CC(C)(C)OC(=O)CC(C#N)(C#N)CCC(F)=C(F)F [present invention compound (40), 2-(tert-butoxycarbonylmethyl)-2-(3,4,4-trifluoro-3-butenyl)malononitrile] | – | – | 100 | – |
| CC(C)(C)SC(=O)CC(C#N)(C#N)CCC(F)(F)F [present invention compound (47), 2-[(tert-butylthio)carbonylmethyl]-2-(3,3,3-trifluoropropyl)malononitrile] | – | – | 100 | – |
| CC(C)(C)OC(=O)CC(C#N)(C#N)CCCC(F)(F)F [present invention compound (51), 2-(tert-butoxycarbonylmethyl)-2-(4,4,4-trifluorobutyl)malononitrile] | – | 100 | – | – |
| CC(C)(C)COC(=O)CC(C#N)(C#N)CCC(F)(F)F [present invention compound (53), 2-[(2,2-dimethylpropoxy)carbonylmethyl]-2-(3,3,3-trifluoropropyl)malononitrile] | ≥ 90 | 100 | – | – |
| CC(CCl)OC(=O)CC(C#N)(C#N)CCC(F)(F)F (centres unmarked) [present invention compound (55), 2-[(2-chloro-1-methylethoxy)carbonylmethyl]-2-(3,3,3-trifluoropropyl)malononitrile] | ≥ 90 | 100 | – | – |
| C#CC(C)(C)OC(=O)CC(C#N)(C#N)CCC(F)(F)F [present invention compound (57), 2-[(1,1-dimethyl-2-propynyl)oxycarbonylmethyl]-2-(3,3,3-trifluoropropyl)malononitrile] | – | 100 | 100 | – |
| C#CC(C)(CC)OC(=O)CC(C#N)(C#N)CCC(F)(F)F (centres unmarked) [present invention compound (58), 2-((1-ethyl-1-methyl-2-propynyloxycarbonyl)methyl)-2-(3,3,3-trifluoropropyl)malononitrile] | – | 100 | 100 | – |
| C#CC(C)(C)OC(=O)C(C)C(C#N)(C#N)CCC(F)(F)F (centres unmarked) [present invention compound (64), 2-(1-[(1,1-dimethyl-2-propynyl)oxycarbonyl]ethyl)-2-(3,3,3-trifluoropropyl)malononitrile] | – | – | 100 | – |
| C#CC(C)(CC)OC(=O)C(C)C(C#N)(C#N)CCC(F)(F)F (centres unmarked) [present invention compound (65), 2-(1-[(1-ethyl-1-methyl-2-propynyl)oxycarbonyl]ethyl)-2-(3,3,3-trifluoropropyl)malononitrile] | – | – | 100 | – |
| C=CC(C)(C)OC(=O)C(C)C(C#N)(C#N)CCC(F)(F)F (centres unmarked) [present invention compound (67), 2-(1-[(1,1-dimethyl-2-propenyl)oxycarbonyl]ethyl)-2-(3,3,3-trifluoropropyl)malononitrile] | – | – | 100 | – |
| CC(C)CC(C)OC(=O)C(C)C(C#N)(C#N)CCC(F)(F)F (centres unmarked) [present invention compound (69), 2-(1-[(1,3-dimethylbutoxy)carbonyl]ethyl)-2-(3,3,3-trifluoropropyl)malononitrile] | – | 100 | – | – |
| CC(C(=O)OCC(C)(C)C)C(C#N)(C#N)CCC(F)(F)F (centres unmarked) [present invention compound (70), 2-(1-[(2,2dimethylpropoxy)carbonyl]ethyl)-2-(3,3,3-trifluoropropyl)malononitrile] | – | 100 | – | – |
| COC(=O)C(C)C(C#N)(C#N)CCC(F)(F)F (centres unmarked) [present invention compound (71), 2-[1-(methoxycarbonyl)ethyl]-2-(3,3,3-trifluoropropyl)malononitrile] | ≥ 90 | 100 | – | – |
| CCOC(=O)CC(C)(C#N)C#N [present invention compound (74), 2-(ethoxycarbonylmethyl)-2-methylmalononitrile] | – | – | – | number of parasitic Nilaparvata lugens [5]: ≤ 3 |
| CCOC(=O)CCC(C#N)C#N [reference compound (1), 2-[2-(ethoxycarbonyl)ethyl]malononitrile, reference compound] | – | – | – | number of parasitic Nilaparvata lugens [5]: ≥ 20 |

From patent US7439266B2, “Malononitrile compound and use thereof” (Sumitomo Chemical Company, Limited, priority 2002, dated 2008)
